Reference: patent publication US20050004130A1, “New metabotropic glutamate receptor compounds” (AstraZeneca and NPS Pharmaceuticals, Inc., priority 2003, published 2005)

Assays:
recombinant mGluR1 = target: T1, recombinant mGluR1 (Homo sapiens, UniProt Q13255); test: Assay of Group I receptor antagonist activity (FLIPR [Ca2+]i mobilization; secondary IP3 turnover) in cells expressing mGluR1; format: cell-based
T1 construct: expressed in transfected cells
Method: (§1) For FLIPR analysis, cells expressing human mGluR5d or recombinant mGluR1 as described in WO97/05252 were seeded on collagen coated clear bottom 96-well plates with black sides and analysis of [Ca^2+]i mobilization was done 24 h after seeding. FLIPR experiments were done using a laser setting of 0.800 W and a 0.4 second CCD camera shutter speed. Each FLIPR experiment was initiated with 160 μl of buffer present in each well of the cell plate. After each addition of the compound, the fluorescence signal was sampled 50 times at 1 second intervals followed by 3 samples at 5 second intervals. Responses were measured as the peak height of the response within the sample period. EC50 and IC50 determinations were made from data obtained from 8-point concentration response curves (CRC) performed in duplicate. Agonist CRC were generated by scaling all responses to the maximal response observed for the plate. […]
(§2) We have validated a secondary functional assay for mGluR5d or recombinant mGluR1 as described in WO97/05252 based on Inositol Phosphate (IP3) turnover. IP3 accumulation is measured as an index of receptor mediated phospholipase C turnover. […] Antagonist activity was determined by pre-incubating test compounds for 15 min, then incubating in the presence of glutamate (80 μM) or DHPG (30 μM) for 30 min. […]

human mGluR5d = target: T2, human mGluR5d (Homo sapiens, UniProt P41594); test: Assay of Group I receptor antagonist activity (FLIPR [Ca2+]i mobilization; secondary IP3 turnover) in cells expressing mGluR5d; format: cell-based; details: read-out: mGluR5 IC50
T2 construct: expressed in transfected cells
Method: as §1, §2

T2 sequence (P41594 21-942 isoform P41594-3 limits assumed): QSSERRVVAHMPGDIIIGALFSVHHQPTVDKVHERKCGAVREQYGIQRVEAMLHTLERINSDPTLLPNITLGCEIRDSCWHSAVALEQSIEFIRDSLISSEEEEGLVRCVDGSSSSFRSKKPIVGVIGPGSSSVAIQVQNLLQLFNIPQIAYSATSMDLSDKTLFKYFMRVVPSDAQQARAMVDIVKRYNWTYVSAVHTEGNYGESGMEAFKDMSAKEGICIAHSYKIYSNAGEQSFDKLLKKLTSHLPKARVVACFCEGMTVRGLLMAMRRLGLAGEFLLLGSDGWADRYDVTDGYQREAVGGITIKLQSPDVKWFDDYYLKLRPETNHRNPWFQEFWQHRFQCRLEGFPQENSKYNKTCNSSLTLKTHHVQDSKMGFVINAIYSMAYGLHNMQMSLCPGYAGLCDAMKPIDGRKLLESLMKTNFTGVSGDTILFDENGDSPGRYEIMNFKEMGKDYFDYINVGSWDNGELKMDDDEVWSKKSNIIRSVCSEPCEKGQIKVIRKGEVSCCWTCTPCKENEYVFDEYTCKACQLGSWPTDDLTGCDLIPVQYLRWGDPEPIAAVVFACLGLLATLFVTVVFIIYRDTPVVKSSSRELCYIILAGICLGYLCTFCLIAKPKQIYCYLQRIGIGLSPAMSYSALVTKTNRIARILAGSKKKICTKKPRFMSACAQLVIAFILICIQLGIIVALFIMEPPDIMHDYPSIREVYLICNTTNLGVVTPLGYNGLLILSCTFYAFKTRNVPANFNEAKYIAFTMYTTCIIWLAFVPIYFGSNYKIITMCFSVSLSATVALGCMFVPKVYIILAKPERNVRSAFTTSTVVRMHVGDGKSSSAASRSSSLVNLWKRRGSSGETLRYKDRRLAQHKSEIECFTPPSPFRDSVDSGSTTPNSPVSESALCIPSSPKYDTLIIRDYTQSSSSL
T1 sequence (Q13255 19-1194): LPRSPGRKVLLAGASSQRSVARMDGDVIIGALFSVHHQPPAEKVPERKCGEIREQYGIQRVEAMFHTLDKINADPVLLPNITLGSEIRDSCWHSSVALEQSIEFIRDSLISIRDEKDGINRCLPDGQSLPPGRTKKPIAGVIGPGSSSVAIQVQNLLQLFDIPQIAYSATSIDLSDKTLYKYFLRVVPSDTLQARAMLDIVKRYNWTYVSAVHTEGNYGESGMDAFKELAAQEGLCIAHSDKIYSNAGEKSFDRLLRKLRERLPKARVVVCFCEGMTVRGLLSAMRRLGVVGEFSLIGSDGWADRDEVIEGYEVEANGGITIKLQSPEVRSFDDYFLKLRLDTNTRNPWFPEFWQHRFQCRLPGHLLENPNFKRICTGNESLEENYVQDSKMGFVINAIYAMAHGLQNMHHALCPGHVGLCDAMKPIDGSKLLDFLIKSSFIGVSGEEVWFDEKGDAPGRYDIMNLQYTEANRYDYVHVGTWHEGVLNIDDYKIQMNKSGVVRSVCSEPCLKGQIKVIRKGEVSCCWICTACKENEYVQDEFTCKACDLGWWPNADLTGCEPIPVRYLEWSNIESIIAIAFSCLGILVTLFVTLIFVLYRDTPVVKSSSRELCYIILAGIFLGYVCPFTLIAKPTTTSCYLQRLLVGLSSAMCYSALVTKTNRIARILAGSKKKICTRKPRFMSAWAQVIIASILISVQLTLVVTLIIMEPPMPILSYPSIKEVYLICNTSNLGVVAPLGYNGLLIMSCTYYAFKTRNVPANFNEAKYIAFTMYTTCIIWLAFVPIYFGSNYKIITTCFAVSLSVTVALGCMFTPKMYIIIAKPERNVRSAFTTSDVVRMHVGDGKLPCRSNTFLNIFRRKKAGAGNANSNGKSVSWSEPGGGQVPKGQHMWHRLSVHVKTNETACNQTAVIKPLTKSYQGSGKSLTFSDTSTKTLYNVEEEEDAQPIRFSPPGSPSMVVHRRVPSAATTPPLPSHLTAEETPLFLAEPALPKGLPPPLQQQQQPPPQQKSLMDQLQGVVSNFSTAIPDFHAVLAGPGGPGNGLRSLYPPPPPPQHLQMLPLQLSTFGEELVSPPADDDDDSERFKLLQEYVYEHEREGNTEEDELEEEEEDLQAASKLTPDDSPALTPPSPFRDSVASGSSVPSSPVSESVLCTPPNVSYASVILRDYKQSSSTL

IC50 (recombinant mGluR1): 0.052 µM | IC50 (human mGluR5d): 7.29 µM
SMILES: CC1CCc2nc(C(=O)N[C@H]3CC[C@H](C)CC3)cnc2C1 (relative stereo) [6-methyl-N-(trans-4-methylcyclohexyl)-5,6,7,8-tetrahydroquinoxaline-2-carboxamide]
